Measured values reported in article PMC8524858, “Dual inhibition of αvβ6 and αvβ1 reduces fibrogenesis in lung tissue explants from patients with IPF” (Respiratory Research, 2021).

Tests used:
[1] = tested on: PCLSs prepared from explanted lung tissue from patients with IPF; assay: Fibrotic gene expression in PCLSs from IPF lung explants; type: cell-based, human
From the text: PCLSs were generated from explanted lung tissue from patients with IPF and cultured as previously described. Mouse PCLSs were generated and cultured as previously described. Messenger ribonucleic acid (mRNA) levels in lysates prepared from snap-frozen tissue slices were quantified via NanoString PlexSet reagents and nCounter SPRINT Profiler (NanoString; Seattle, WA, USA; Additional file 1: Table S2) or TaqMan primers/probes on a Bio-Rad CFX96 thermocycler (Bio-Rad; Hercules, CA, USA; Additional file 1: Table S3).
(§1) Human PCLSs were generated from lung tissue explants from patients with IPF undergoing transplant surgery and cultured based on previously reported methods (E7-E12). Slices of tissue (400 µm) were cut using a Compresstome VF-300-0Z (Precisionary Instruments; Natick, MA, USA).
Slices from each individual core (human) or mouse were distributed among the treatment groups to control for variability in the fibrotic injury within the tissue. […] After 3 or 7 days in culture, slices were washed and snap-frozen. Viability of sentinel slices on Days 0/1 and 3/7 was determined using WST-1 Cell Proliferation Reagent (Sigma 5015944001; St Louis, MO, USA).
For all figures (except Fig. 2B, Fig. S2, and Fig. S4), snap-frozen tissue slices were incubated in one-third RLT buffer (Qiagen #79216; Venlo, Netherlands) supplemented with 2 mg/ml proteinase K (Sigma-Aldrich #3115887001; St Louis, MO, USA) at 55 °C for 2 h 45 min, with periodic vortexing to generate ribonucleic acid (RNA)-compatible tissue lysate. This lysate was incubated overnight with probes from a custom fibrosis gene panel and NanoString PlexSet reagents (Table S2). The following day, samples were analyzed on a NanoString nCounter SPRINT Profiler (NanoString; Seattle, WA, USA). Messenger RNA (mRNA) counts were normalized to housekeeping genes (GUSB, HPRT1, RPLP0, and/or POLR1B) and total mRNA counts, relative to vehicle-treated control from the same experiment, are reported.

[2] = biological target: T1, human integrin αvβ1 (Homo sapiens, UniProt P05556+P06756); assay: Integrin ligand-binding assay, αvβ1 (fibronectin ligand)
T1 construct: purchased ACROBiosystems or R&D Systems IT1-H52E1 or 6579-AVB
T1 sequence (P06756 31-992 limits assumed): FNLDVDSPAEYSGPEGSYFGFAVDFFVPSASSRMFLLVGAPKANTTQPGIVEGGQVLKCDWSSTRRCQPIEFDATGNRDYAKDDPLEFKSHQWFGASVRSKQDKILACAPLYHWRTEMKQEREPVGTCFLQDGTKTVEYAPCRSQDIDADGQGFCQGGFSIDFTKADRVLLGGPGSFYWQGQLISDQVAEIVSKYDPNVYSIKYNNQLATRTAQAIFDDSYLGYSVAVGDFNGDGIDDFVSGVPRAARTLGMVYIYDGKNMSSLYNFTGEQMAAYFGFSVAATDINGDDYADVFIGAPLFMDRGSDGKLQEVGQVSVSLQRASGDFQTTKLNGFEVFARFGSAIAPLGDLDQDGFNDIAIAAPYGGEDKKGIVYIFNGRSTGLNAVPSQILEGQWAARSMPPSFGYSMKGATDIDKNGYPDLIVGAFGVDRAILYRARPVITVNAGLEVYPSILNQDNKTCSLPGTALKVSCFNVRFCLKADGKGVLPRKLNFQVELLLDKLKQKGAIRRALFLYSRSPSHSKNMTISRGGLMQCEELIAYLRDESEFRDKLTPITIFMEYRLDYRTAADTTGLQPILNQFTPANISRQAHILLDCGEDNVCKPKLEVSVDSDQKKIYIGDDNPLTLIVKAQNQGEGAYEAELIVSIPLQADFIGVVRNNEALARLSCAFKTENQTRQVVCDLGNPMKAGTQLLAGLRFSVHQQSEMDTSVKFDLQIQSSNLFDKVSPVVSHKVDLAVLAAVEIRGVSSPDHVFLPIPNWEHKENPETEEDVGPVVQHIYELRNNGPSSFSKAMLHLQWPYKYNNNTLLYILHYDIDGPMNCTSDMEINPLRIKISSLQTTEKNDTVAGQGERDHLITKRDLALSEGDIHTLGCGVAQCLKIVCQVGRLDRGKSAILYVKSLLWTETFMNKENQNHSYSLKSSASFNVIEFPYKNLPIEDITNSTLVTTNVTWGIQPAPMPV
T1 sequence (P05556 21-728 limits assumed): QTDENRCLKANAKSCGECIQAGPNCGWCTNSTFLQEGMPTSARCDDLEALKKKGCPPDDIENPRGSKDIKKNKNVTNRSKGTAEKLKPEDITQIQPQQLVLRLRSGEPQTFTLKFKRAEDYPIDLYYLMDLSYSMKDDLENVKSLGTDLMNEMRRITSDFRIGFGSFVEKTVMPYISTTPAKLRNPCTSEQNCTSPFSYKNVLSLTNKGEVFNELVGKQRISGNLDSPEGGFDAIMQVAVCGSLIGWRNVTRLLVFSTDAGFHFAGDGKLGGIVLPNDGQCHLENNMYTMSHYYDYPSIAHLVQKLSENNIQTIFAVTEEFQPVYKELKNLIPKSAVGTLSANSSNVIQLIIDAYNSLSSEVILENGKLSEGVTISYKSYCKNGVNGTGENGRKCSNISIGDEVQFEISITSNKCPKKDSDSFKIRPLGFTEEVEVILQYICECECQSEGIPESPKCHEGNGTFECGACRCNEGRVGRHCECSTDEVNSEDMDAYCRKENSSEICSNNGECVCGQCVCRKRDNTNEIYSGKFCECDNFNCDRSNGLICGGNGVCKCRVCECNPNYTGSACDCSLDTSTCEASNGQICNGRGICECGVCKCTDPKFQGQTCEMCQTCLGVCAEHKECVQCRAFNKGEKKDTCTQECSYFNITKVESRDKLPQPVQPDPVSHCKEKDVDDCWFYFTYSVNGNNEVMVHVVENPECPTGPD
Description: (§2) Integrin ligand-binding assays were performed similar to that previously described.
(§3) Microplates were coated with recombinant human integrins dissolved in PBS (2 µg/ml, overnight at room temperature). Following removal of the coating solution, plates were washed with PBS. Plates were blocked with 200 µL/well of blocking buffer (2% bovine serum albumin [BSA] in PBS) at 37 °C for 1 h. […] Plates were incubated for 2 h at 25 °C, washed, and incubated for 1 h with biotin-labeled anti-fibronectin or anti-LAP antibodies (for αvβ1 or αvβ6/αvβ8, respectively).

[3] = tested on: αvβ1-induced TGF-β activation; assay: TGF-β co-culture assay, CHO-αv cells with MLEC luciferase reporter cells; type: cell-based, human; settings: integrin αvβ1
Description: SW-β6 cells and MLECs or CHO-αv cells and MLECs were cultured in 96-well plates with test compounds or antibodies for 20 h at 37 °C in a 5% CO2 incubator. […] Measurement of MLEC luciferase production resulting from αvβ6- or αvβ1-mediated TGF-β activation was performed using the Bright-Glo Luciferase Assay System (Promega; Madison, WI, USA) according to manufacturer’s instruction. Luminescence was quantified by a Tecan Spark 10M plate reader. IC50 curves were generated using Dotmatics software suite with five-parameter logistic curve fitting. Geometric mean IC50 was calculated for each compound from multiple independent analyses.

[4] = tested on: Smad2 phosphorylation (canonical TGF-β signaling) in IPF PCLSs; assay: Smad2 phosphorylation in PCLSs from IPF explant tissue; type: cell-based, human; settings: 7 days; n = 3 individual patients (Fig. S1B)
Description: Integrin αvβ1 protein levels and Smad phosphorylation levels in tissues or cells were quantified by the Meso Scale Discovery custom electrochemiluminescence assay.
Biotin-labeled antibodies for total Smad2/3, phosphorylated Smad2 (pSmad2), and total Smad2 (Cell Signaling Technology; Danvers, MA, USA), and antibodies for phosphorylated Smad3 (pSmad3) and total Smad3 (Abcam; Cambridge, UK) were utilized for pSmad electrochemiluminescence assays.
pSmad2 and total Smad2 quantitation were performed similarly to that described for pSmad3 and total Smad3 above, with the exception that U-PLEX linker conjugated biotinylated anti-pSmad2 and total Smad2 antibodies were bound to U-PLEX MSD assay plates (MSD; K15227N-2) according to manufacturer’s instruction, followed by unknown sample incubation and addition of sulfo-tag-labeled anti-Smad2/3 antibody.
as §1

[5] = tested on: normal human bronchial epithelial cell adhesion to LAP (αvβ6 integrin-mediated); assay: Primary cell LAP adhesion assay (cell impedance), NHBE; type: cell-based; settings: normal human bronchial epithelial cells, read-out: IC50 for inhibition of adhesion to LAP
Description: (§4) Adhesion of primary human lung cells to LAP was quantified using the xCELLigence RTCA MP instrument (ACEA Biosciences; San Diego, CA, USA) via cell impedance measurements similar to that previously described.
(§5) Adhesion assays were performed using the xCELLigence RTCA MP instrument (ACEA Biosciences; San Diego, CA, USA) on 96-well PET plates (ACEA Biosciences; 300600910) via a cell impedance measurement similar to one previously described (E6). Plates were coated with LAP (Sino Biological; 10804-H08H1) overnight at 4 °C and blocked with BSA for 2 h at 37 °C. NHLF (40,000 cells/well), dHLF (40,000 cells/well), or NHBE (20,000 cells per well) in FBS-free media were combined with small-molecule integrin inhibitors or antibodies in the plates and incubated at 37 °C with 5% CO2. […] Anti-αv antibody, 17E6, and anti-β1 antibody, P5D2, were tested at a single concentration (10 μg/ml). Cell impedance (cell index) was measured at baseline and every 3 min for up to 24 h using xCELLigence RTCA 2.1.0 Software (ACEA Biosciences). […] Geometric mean IC50 was calculated for each compound following repeat analyses of multiple donor cells.

[6] = biological target: T2, human integrin αvβ8 (Homo sapiens, UniProt P06756+P26012); assay: Integrin ligand-binding assay, αvβ8 (LAP ligand)
T2 construct: purchased R&D Systems 4135-AV
T2 sequence (P06756 31-992 limits assumed): as the sequence (P06756 31-992 limits assumed) above
T2 sequence (P26012 43-684 limits assumed): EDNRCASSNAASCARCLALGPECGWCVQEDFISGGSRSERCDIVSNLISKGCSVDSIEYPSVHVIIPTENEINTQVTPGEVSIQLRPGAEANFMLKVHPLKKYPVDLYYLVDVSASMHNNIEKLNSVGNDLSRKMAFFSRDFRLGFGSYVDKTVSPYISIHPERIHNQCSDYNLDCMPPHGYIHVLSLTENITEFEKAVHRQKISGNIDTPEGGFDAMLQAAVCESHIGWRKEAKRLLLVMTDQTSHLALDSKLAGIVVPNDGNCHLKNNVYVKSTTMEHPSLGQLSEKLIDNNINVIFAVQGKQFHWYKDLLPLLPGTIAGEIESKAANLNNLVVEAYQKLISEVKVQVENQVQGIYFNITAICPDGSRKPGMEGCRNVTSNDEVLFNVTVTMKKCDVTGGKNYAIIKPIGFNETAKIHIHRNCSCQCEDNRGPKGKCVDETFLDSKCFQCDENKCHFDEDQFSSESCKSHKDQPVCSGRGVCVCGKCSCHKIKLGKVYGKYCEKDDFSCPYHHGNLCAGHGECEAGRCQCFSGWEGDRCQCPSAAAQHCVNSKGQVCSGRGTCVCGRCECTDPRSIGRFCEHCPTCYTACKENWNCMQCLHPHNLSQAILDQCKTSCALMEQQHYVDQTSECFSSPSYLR
Description: as §2, §3

[7] = tested on: IPF lung fibroblast adhesion to LAP; assay: Primary cell LAP adhesion assay (cell impedance), IPF HLF; type: cell-based; settings: Homo sapiens, HLFs isolated from fibrotic (IPF) lung tissue, read-out: IC50 for blocking adhesion to LAP
Description: as §4, §5

[8] = 7 days, PLN-74809 200 nM, relative to vehicle (Fig. 6B)

COCCN(CCCCc1ccc2c(n1)NCCC2)CC[C@H](Nc1ncnc2ccccc12)C(=O)O [PLN-74809]
reduction of COL1A1 mRNA expression ([1]; 7-day incubation, Compound A 471 nM, 3G9 0.5 µg/ml, PLN-74809 1.82 µM, ALK5i R-268712 1 µM, vs vehicle (Fig. 1A)): 54%
reduction of COL1A1 mRNA expression ([1]; 7 days, PLN-74809 200 nM, nintedanib 75 nM, pirfenidone 50 µM, vs DMSO (Fig. 6A)): 42%
reduction of COL3A1 expression [1, 8]: 30%
reduction of SERPINE1 expression [1, 8]: 39%
reduction of TIMP1 expression [1, 8]: 26%
reduction of collagen gene expression ([1]; at concentrations as low as 2 nM, explanted tissue from a patient with IPF): ~ 50%
lowest concentration sufficient to significantly reduce COL1A1 expression ([1]; dose titration, PCLSs from a single patient with IPF (Fig. S1C)): 2 nM
IC50 [2]: 3.4 nM
Fold selectivity (vs αvβ6) ([2]; ligand binding): 0.6×
Fold selectivity (vs αvβ6) ([3]; TGF-β activation): 0.6×
IC50 [3]: 19.2 nM
reduction in Smad2 phosphorylation [4]: approximately 50%
IC50 [5]: 39.3 nM
IC50 [6]: 2540 nM
Fold selectivity (vs αvβ6) ([6]; ligand binding): 445×
IC50 [7]: 23.5 nM
